Experimental data reported in PubChem BioAssay AID1259407 (Chemical Carcinogenesis Research Information System (CCRIS), 2018).
Activity calls are given as the source filed them. How the calls were made is not given here.

System: CCRIS mutagenicity, Ames/micronucleus/aberration tests
Test: CCRIS mutagenicity studies
[1] = Test System: AMES SALMONELLA TYPHIMURIUM, Strain/Indicator: TA98, Metabolic Activation: NONE, Method: STANDARD PLATE
[2] = Test System: AMES SALMONELLA TYPHIMURIUM, Strain/Indicator: TA98, Metabolic Activation: RAT, LIVER, S-9, AROCLOR 1254, Method: STANDARD PLATE
[3] = Test System: AMES SALMONELLA TYPHIMURIUM, Strain/Indicator: TA100, Metabolic Activation: NONE, Method: STANDARD PLATE
[4] = Test System: AMES SALMONELLA TYPHIMURIUM, Strain/Indicator: TA100, Metabolic Activation: RAT, LIVER, S-9, AROCLOR 1254, Method: STANDARD PLATE
[5] = Test System: AMES SALMONELLA TYPHIMURIUM, Strain/Indicator: TA1535, Metabolic Activation: NONE, Method: STANDARD PLATE

Measured: mutagenic call

CN(C)C=O
inactive: Test System: AMES SALMONELLA TYPHIMURIUM, Strain/Indicator: TA97, Metabolic Activation: NONE, Method: STANDARD PLATE inactive; negative | Test System: AMES SALMONELLA TYPHIMURIUM, Strain/Indicator: TA97, Metabolic Activation: RAT, LIVER, S-9, AROCLOR 1254, Method: STANDARD PLATE inactive; negative | [1] inactive; negative | [2] inactive; negative | [3] inactive; negative | [4] inactive; negative | Test System: Ames Salmonella typhimurium, Strain/Indicator: TA98, Metabolic Activation: None, Method: Gas exposure method inactive; negative | Test System: Ames Salmonella typhimurium, Strain/Indicator: TA98, Metabolic Activation: Rat, Liver, S9, Sodium phenobarbital and 5,6-benzoflavone (10%), Method: Gas exposure method inactive; negative | Test System: Ames Salmonella typhimurium, Strain/Indicator: TA100, Metabolic Activation: None, Method: Gas exposure method inactive; negative | Test System: Ames Salmonella typhimurium, Strain/Indicator: TA100, Metabolic Activation: Rat, Liver, S9, Sodium phenobarbital and 5,6-benzoflavone (10%), Method: Gas exposure method inactive; negative | Test System: Ames Salmonella typhimurium, Strain/Indicator: TA1535, Metabolic Activation: None, Method: Gas exposure method inactive; negative | Test System: Ames Salmonella typhimurium, Strain/Indicator: TA1535, Metabolic Activation: Rat, Liver, S9, Sodium phenobarbital and 5,6-benzoflavone (10%), Method: Gas exposure method inactive; negative | Test System: Ames Salmonella typhimurium, Strain/Indicator: TA1537, Metabolic Activation: None, Method: Gas exposure method inactive; negative | Test System: Ames Salmonella typhimurium, Strain/Indicator: TA1537, Metabolic Activation: Rat, Liver, S9, Sodium phenobarbital and 5,6-benzoflavone (10%), Method: Gas exposure method inactive; negative | Test System: E. coli, Strain/Indicator: WP2uvrA/pKM101, Metabolic Activation: None, Method: Gas exposure method inactive; negative | Test System: E. coli, Strain/Indicator: WP2uvrA/pKM101, Metabolic Activation: Rat, Liver, S9, Sodium phenobarbital and 5,6-benzoflavone (10%), Method: Gas exposure method inactive; negative | Test System: MOUSE LYMPHOMA, Strain/Indicator: L5178Y (TK+/TK-), Metabolic Activation: NONE, Method: SUSPENSION/PLATE inactive; negative | Test System: MOUSE LYMPHOMA, Strain/Indicator: L5178Y (TK+/TK-), Metabolic Activation: RAT, LIVER, S-9, AROCLOR 1254, Method: SUSPENSION/PLATE inactive; negative | Test System: MOUSE LYMPHOMA, Strain/Indicator: L5178Y (TK+/TK-), Metabolic Activation: RAT, LIVER, S-9, Method: SUSPENSION/PLATE inactive; negative

c1ccc2cc3c(ccc4cccnc43)cc2c1
inactive: [1] inactive; negative | [3] inactive; negative | [4] inactive; negative
active: [2] active; positive

O=CC1C=COC=C1
inactive: [1] inactive; negative | Test System: AMES SALMONELLA TYPHIMURIUM, Strain/Indicator: TA98, Metabolic Activation: RAT, LIVER, S-9, PHENOBARBITAL, Method: STANDARD PLATE inactive; negative | [3] inactive; negative | Test System: AMES SALMONELLA TYPHIMURIUM, Strain/Indicator: TA100, Metabolic Activation: RAT, LIVER, S-9, PHENOBARBITAL, Method: STANDARD PLATE inactive; negative | Test System: AMES SALMONELLA TYPHIMURIUM, Strain/Indicator: TM677/8-AZAGUANINE, Metabolic Activation: NONE, Method: STANDARD PLATE inactive; negative

CC(C)NCC(O)COc1cccc2c1OCC(O)C2 (configuration not stated)
inactive: [1] inactive; negative | Test System: AMES SALMONELLA TYPHIMURIUM, Strain/Indicator: TA98, Metabolic Activation: S-9, Method: STANDARD PLATE inactive; negative | [3] inactive; negative | Test System: AMES SALMONELLA TYPHIMURIUM, Strain/Indicator: TA100, Metabolic Activation: S-9, Method: STANDARD PLATE inactive; negative | [5] inactive; negative | Test System: AMES SALMONELLA TYPHIMURIUM, Strain/Indicator: TA1535, Metabolic Activation: S-9, Method: STANDARD PLATE inactive; negative | Test System: AMES SALMONELLA TYPHIMURIUM, Strain/Indicator: TA1537, Metabolic Activation: NONE, Method: STANDARD PLATE inactive; negative | Test System: AMES SALMONELLA TYPHIMURIUM, Strain/Indicator: TA1537, Metabolic Activation: S-9, Method: STANDARD PLATE inactive; negative | Test System: AMES SALMONELLA TYPHIMURIUM, Strain/Indicator: TA1538, Metabolic Activation: NONE, Method: STANDARD PLATE inactive; negative | Test System: AMES SALMONELLA TYPHIMURIUM, Strain/Indicator: TA1538, Metabolic Activation: S-9, Method: STANDARD PLATE inactive; negative | Test System: E. COLI, Strain/Indicator: WP2 UVRA, Metabolic Activation: NONE, Method: STANDARD PLATE inactive; negative | Test System: E. COLI, Strain/Indicator: WP2 UVRA, Metabolic Activation: S-9, Method: STANDARD PLATE inactive; negative

CN(Cc1ccc(F)cc1)N=O
inactive: [5] inactive; negative
active: Test System: AMES SALMONELLA TYPHIMURIUM, Strain/Indicator: TA1535, Metabolic Activation: HAMSTER, LIVER, S-9, AROCLOR 1254, Method: STANDARD PLATE active; positive
